Patent publication US6352958B1, “Cycloimido-substituted benzofused heterocyclic herbicides” (FMC Corporation, priority 1997, dated 2002)

Tests used:
Assay type in all cases: in vivo
[1] = system: soybean (Glycine max var. Winchester); assay: Preemergence herbicidal activity, soybean; details: Rate of Application 0.3 Kg/Ha, examined after 12-17 days
[2] = system: wheat (Triticum aestivum var. Lew); assay: Preemergence herbicidal activity, wheat; details: Rate of Application 0.3 Kg/Ha, examined after 12-17 days
[3] = system: field corn (Zea mays var. Pioneer 3732); assay: Preemergence herbicidal activity, corn; details: Rate of Application 0.3 Kg/Ha, examined after 12-17 days
[4] = system: velvetleaf (Abutilon theophrasti); assay: Preemergence herbicidal activity, velvetleaf; details: Rate of Application 0.3 Kg/Ha, examined after 12-17 days
[5] = system: morningglory (Ipomea lacunosa or Ipomea hederacea); assay: Preemergence herbicidal activity, morningglory; details: Rate of Application 0.3 Kg/Ha, examined after 12-17 days
[6] = system: common chickweed (Stellaria media); assay: Preemergence herbicidal activity, chickweed; details: Rate of Application 0.3 Kg/Ha, examined after 12-17 days
[7] = system: common cocklebur (Xanthium strumarium L.); assay: Preemergence herbicidal activity, cocklebur; details: Rate of Application 0.3 Kg/Ha, examined after 12-17 days
[8] = system: blackgrass (Aloepecurus myosuroides); assay: Preemergence herbicidal activity, blackgrass; details: Rate of Application 0.3 Kg/Ha, examined after 12-17 days
[9] = system: green foxtail (Setaria viridis); assay: Preemergence herbicidal activity, green foxtail; details: Rate of Application 0.3 Kg/Ha, examined after 12-17 days
[10] = system: Johnsongrass (Sorghum halepense); assay: Preemergence herbicidal activity, johnsongrass; details: Rate of Application 0.3 Kg/Ha, examined after 12-17 days
[11] = system: soybean (Glycine max var. Winchester); assay: Postemergence herbicidal activity, soybean; details: rate of application 0.3 Kg/Ha, rated after 12-17 days
[12] = system: wheat (Triticum aestivum var. Lew); assay: Postemergence herbicidal activity, wheat; details: rate of application 0.3 Kg/Ha, rated after 12-17 days
[13] = system: field corn (Zea mays var. Pioneer 3732); assay: Postemergence herbicidal activity, corn; details: rate of application 0.3 Kg/Ha, rated after 12-17 days
[14] = system: velvetleaf (Abutilon theophrasti); assay: Postemergence herbicidal activity, velvetleaf; details: rate of application 0.3 Kg/Ha, rated after 12-17 days
[15] = system: morningglory (Ipomea lacunosa or Ipomea hederacea); assay: Postemergence herbicidal activity, morningglory; details: rate of application 0.3 Kg/Ha, rated after 12-17 days
[16] = system: common chickweed (Stellaria media); assay: Postemergence herbicidal activity, chickweed; details: rate of application 0.3 Kg/Ha, rated after 12-17 days
[17] = system: common cocklebur (Xanthium strumarium L.); assay: Postemergence herbicidal activity, cocklebur; details: rate of application 0.3 Kg/Ha, rated after 12-17 days
[18] = system: blackgrass (Aloepecurus myosuroides); assay: Postemergence herbicidal activity, blackgrass; details: rate of application 0.3 Kg/Ha, rated after 12-17 days
[19] = system: green foxtail (Setaria viridis); assay: Postemergence herbicidal activity, green foxtail; details: rate of application 0.3 Kg/Ha, rated after 12-17 days
[20] = system: Johnsongrass (Sorghum halepense); assay: Postemergence herbicidal activity, johnsongrass; details: rate of application 0.3 Kg/Ha, rated after 12-17 days

Row | SMILES | PREEMERGENCE HERBICIDAL ACTIVITY (% CONTROL) SOY [1] | PREEMERGENCE HERBICIDAL ACTIVITY (% CONTROL) WHT [2] | PREEMERGENCE HERBICIDAL ACTIVITY (% CONTROL) CRN [3] | PREEMERGENCE HERBICIDAL ACTIVITY (% CONTROL) ABUTH [4] | PREEMERGENCE HERBICIDAL ACTIVITY (% CONTROL) IPOSS [5] | PREEMERGENCE HERBICIDAL ACTIVITY (% CONTROL) STEME [6] | PREEMERGENCE HERBICIDAL ACTIVITY (% CONTROL) XANPE [7] | PREEMERGENCE HERBICIDAL ACTIVITY (% CONTROL) ALOMY [8] | PREEMERGENCE HERBICIDAL ACTIVITY (% CONTROL) SETVI [9] | PREEMERGENCE HERBICIDAL ACTIVITY (% CONTROL) SORHA [10] | Postemergence herbicidal activity (% control) SOY [11] | Postemergence herbicidal activity (% control) WHT [12] | Postemergence herbicidal activity (% control) CRN [13] | Postemergence herbicidal activity (% control) ABUTH [14] | Postemergence herbicidal activity (% control) IPOSS [15] | Postemergence herbicidal activity (% control) STEME [16] | Postemergence herbicidal activity (% control) XANPE [17] | Postemergence herbicidal activity (% control) ALOMY [18] | Postemergence herbicidal activity (% control) SETVI [19] | Postemergence herbicidal activity (% control) SORHA [20]
1 | CNC(=O)OC(C)c1cc2c(Cl)cc(F)c(-n3c(=O)cc(C(F)(F)F)n(C)c3=O)c2o1 (centres unmarked) [Compound 249] | 100% | 80% | 95% | 100% | 100% | 100% | 90% | 80% | 10% | 100% | 95% | 80% | 100% | 100% | 100% | 100% | 100% | 100% | 100% | 
2 | Cn1c(C(F)(F)F)cc(=O)n(-c2c(F)cc(Cl)c3cc(C(C)(C)C)oc23)c1=O [Compound 227] | 100% | 80% | 90% | 100% | 100% | 100% |  | 95% | 100% | 100% | 95% | 60% | 90% | 100% | 100% | 100% | 100% | 100% | 100% | 100%
3 | CC(OC(=O)NCc1ccccc1)c1cc2c(Cl)cc(F)c(-n3c(=O)cc(C(F)(F)F)n(C)c3=O)c2o1 (centres unmarked) [Compound 250] | 80% | 40% | 50% | 100% | 100% |  | 100% | 60% | 100% | 70% | 95% | 50% | 80% | 100% | 100% | 80% | 100% | 40% | 100% | 100%
4 | Cn1c(C(F)(F)F)cc(=O)n(-c2c(F)cc(Cl)c3cc(CCCC#N)oc23)c1=O [Compound 256] | 100% | 80% | 95% | 100% | 100% | 100% |  | 70% | 100% | 90% | 100% | 80% | 90% | 100% | 100% | 100% | 100% | 80% | 100% | 100%
5 | CC(C)c1cc2c(Cl)cc(F)c(-n3c(=O)cc(C(F)(F)F)n(C)c3=O)c2o1 [Compound 224] | 100% | 80% | 90% | 100% | 100% | 100% | 95% | 80% | 100% | 100% | 95% | 70% | 100% | 100% | 100% | 100% | 100% | 90% | 100% | 
6 | CC(OC(C)(C)C)c1cc2c(Cl)cc(F)c(-n3c(=O)cc(C(F)(F)F)n(C)c3=O)c2o1 (centres unmarked) [Compound 244] | 95% | 80% | 100% | 100% | 90% | 70% | 100% | 70% | 100% | 100% | 95% | 60% | 90% | 100% | 100% | 100% | 100% | 75% | 100% | 
7 | CC(C)C(=O)OC(C)c1cc2c(Cl)cc(F)c(-n3c(=O)cc(C(F)(F)F)n(C)c3=O)c2o1 (centres unmarked) [Compound 247] | 100% | 90% | 90% | 100% | 100% | 95% | 100% | 85% | 100% | 100% | 95% | 80% | 100% | 100% | 100% | 100% | 100% | 100% | 100% | 
8 | Cn1c(C(F)(F)F)cc(=O)n(-c2c(F)cc(Cl)c3[nH]cnc23)c1=O [Compound 362] | 100% | 100% | 100% | 100% | 100% | 100% | 100% | 100% | 100% | 100% | 100% | 100% | 100% | 100% | 100% | 100% |  | 100% | 100% | 100%
